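Method: 48-hour compound exposure of cells in 96-well plates, five concentrations, linear interpolation of endpoints. GI50 = concentration required for 50% inhibition of growth.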 Active and inactive are the calls of the source. Rule as the data show it: active = GI50 up to about 1.1 µM and inactive = higher.
How the values were obtained:
Experiment in all cases: NCI-60 cell line screen, 48 h
OVCAR-4 = system: OVCAR-4
OVCAR-3 = system: OVCAR-3
SK-MEL-28 = system: SK-MEL-28
KM12 = system: KM12
NCI/ADR-RES = system: NCI/ADR-RES
HT-29 = system: HT-29
MOLT-4 = system: MOLT-4
OVCAR-5 = system: OVCAR-5
SK-MEL-5 = system: SK-MEL-5
A498 = system: A498
EKVX = system: EKVX
HCC 2998 = system: HCC 2998
SN12C = system: SN12C
ACHN = system: ACHN
HOP-92 = system: HOP-92
A549 = system: A549
Hs-578T = system: Hs-578T
MCF7 = system: MCF7
COLO 205 = system: COLO 205
HL-60 = system: HL-60

Compound | GI50 (OVCAR-4) | GI50 (OVCAR-3) | GI50 (SK-MEL-28) | GI50 (KM12) | GI50 (NCI/ADR-RES) | GI50 (HT-29) | GI50 (MOLT-4) | GI50 (OVCAR-5) | GI50 (SK-MEL-5) | GI50 (A498) | GI50 (EKVX) | GI50 (HCC 2998) | GI50 (SN12C) | GI50 (ACHN) | GI50 (HOP-92) | GI50 (A549) | GI50 (Hs-578T) | GI50 (MCF7) | GI50 (COLO 205) | GI50 (HL-60)
COc1ccc(OC)c([N+](=O)[O-])c1-c1nc2sc(C)cn2c1/C=N/N=C(N)N | 22.3 µM (inactive) | 28.9 µM (inactive) | 21.4 µM (inactive) | 20.5 µM (inactive) | > 100 µM (inactive) | 25.8 µM (inactive) | < 0.01 µM (active) | 51.4 µM (inactive) | 18.7 µM (inactive) | 34.7 µM (inactive) | 82.2 µM (inactive) | 20.6 µM (inactive) | 23.4 µM (inactive) | 41 µM (inactive) | 17.5 µM (inactive) | 48.6 µM (inactive) | 31 µM (inactive) | 15.1 µM (inactive) |  | 
CSc1cc(Cl)c(C)cc1S(=O)(=O)NC(=O)NNc1ccc(F)c(Cl)c1 | > 100 µM (inactive) | > 100 µM (inactive) | > 100 µM (inactive) | > 100 µM (inactive) | > 100 µM (inactive) | > 100 µM (inactive) | 45.7 µM (inactive) | > 100 µM (inactive) | > 100 µM (inactive) | > 100 µM (inactive) | > 100 µM (inactive) | > 100 µM (inactive) | > 100 µM (inactive) | > 100 µM (inactive) |  | > 100 µM (inactive) | > 100 µM (inactive) | > 100 µM (inactive) | > 100 µM (inactive) | 
CN(C)c1ccc(/C(Br)=C2\OC(=O)c3ccccc32)cc1 | > 100 µM (inactive) |  | > 100 µM (inactive) | 39.2 µM (inactive) | 31.8 µM (inactive) | 42.3 µM (inactive) | 37.2 µM (inactive) | 2.95 µM (inactive) | 77.6 µM (inactive) | > 100 µM (inactive) | > 100 µM (inactive) | > 100 µM (inactive) | > 100 µM (inactive) | > 100 µM (inactive) |  | > 100 µM (inactive) | > 100 µM (inactive) | 0.759 µM (active) | 56.1 µM (inactive) | 34 µM (inactive)
Cc1cc(N2CCOCC2)nc2ccc(Cc3ccc4nc(N5CCOCC5)cc(C)c4c3)cc12 | > 100 µM (inactive) | 33.3 µM (inactive) | 39.4 µM (inactive) | > 100 µM (inactive) | 41.8 µM (inactive) | 18.7 µM (inactive) | 28.8 µM (inactive) | > 100 µM (inactive) | 16.2 µM (inactive) | 59.4 µM (inactive) | 20.7 µM (inactive) | 15.6 µM (inactive) | 55.8 µM (inactive) | 48.5 µM (inactive) | > 100 µM (inactive) | 41.7 µM (inactive) | > 100 µM (inactive) | 37.8 µM (inactive) | 13.3 µM (inactive) | 
OCCN(C1=NCCN1)/[N+](=C/c1ccc(Cl)cc1)[CH-]c1ccc(Cl)cc1 | > 100 µM (inactive) | > 100 µM (inactive) | > 100 µM (inactive) | > 100 µM (inactive) | > 100 µM (inactive) | 94.8 µM (inactive) | 26.5 µM (inactive) | > 100 µM (inactive) | 23.8 µM (inactive) |  | > 100 µM (inactive) | 29.4 µM (inactive) | > 100 µM (inactive) | > 100 µM (inactive) |  | > 100 µM (inactive) | > 100 µM (inactive) | > 100 µM (inactive) | 62.4 µM (inactive) | 
CC(C)/C=N\N1C(N)=C(C#N)C(C#N)(C#N)C1C(C)C (configuration not stated) | 52.1 µM (inactive) | 48.2 µM (inactive) | 47 µM (inactive) | 44.6 µM (inactive) | 31.3 µM (inactive) | 27.5 µM (inactive) | 34.8 µM (inactive) | 50.2 µM (inactive) | 38.3 µM (inactive) | 51.3 µM (inactive) | > 100 µM (inactive) | 34.4 µM (inactive) | 69.8 µM (inactive) | 65.3 µM (inactive) |  | 60.4 µM (inactive) | 88.5 µM (inactive) | 55.5 µM (inactive) | 48.1 µM (inactive) | 32.4 µM (inactive)
COc1ccc(-c2cc(-c3cc(OC)c(OC)c(OC)c3)cc(-c3cc4ccccc4oc3=O)n2)cc1 | 3.94 µM (inactive) | 17 µM (inactive) |  | 12.6 µM (inactive) | 7.18 µM (inactive) | 9.4 µM (inactive) | > 100 µM (inactive) |  | 5.97 µM (inactive) | 5.65 µM (inactive) | 10.9 µM (inactive) | 17.3 µM (inactive) | 8.93 µM (inactive) | 4.13 µM (inactive) | 4.07 µM (inactive) | 15 µM (inactive) | 2.38 µM (inactive) | 16.7 µM (inactive) | > 100 µM (inactive) | > 100 µM (inactive)
Cc1[nH]c2ccccc2c1C1=CC(=O)N(c2ccccc2)C1=O |  | 9.53 µM (inactive) | 6.46 µM (inactive) |  | 20.2 µM (inactive) | 5.58 µM (inactive) | 36.2 µM (inactive) | 23.1 µM (inactive) | 8 µM (inactive) | 9.71 µM (inactive) | 16.8 µM (inactive) | 1.75 µM (inactive) | 13.8 µM (inactive) | 23.2 µM (inactive) | 7.74 µM (inactive) | 22.5 µM (inactive) | 8.22 µM (inactive) | 5.28 µM (inactive) | 17.7 µM (inactive) | 10.7 µM (inactive)
N#CC(NCCc1ccccc1)c1ccccc1 (configuration not stated) | > 100 µM (inactive) | > 100 µM (inactive) | > 100 µM (inactive) | > 100 µM (inactive) | > 100 µM (inactive) | > 100 µM (inactive) | > 100 µM (inactive) | > 100 µM (inactive) | > 100 µM (inactive) |  | > 100 µM (inactive) | > 100 µM (inactive) | > 100 µM (inactive) | > 100 µM (inactive) | > 100 µM (inactive) | > 100 µM (inactive) | > 100 µM (inactive) | > 100 µM (inactive) | > 100 µM (inactive) | > 100 µM (inactive)
CC(NS(C)(=O)=O)c1ccccc1 (configuration not stated) | > 100 µM (inactive) | > 100 µM (inactive) | > 100 µM (inactive) | > 100 µM (inactive) | > 100 µM (inactive) | > 100 µM (inactive) | > 100 µM (inactive) | > 100 µM (inactive) | > 100 µM (inactive) |  |  | > 100 µM (inactive) | > 100 µM (inactive) |  |  | > 100 µM (inactive) | > 100 µM (inactive) | > 100 µM (inactive) | > 100 µM (inactive) | > 100 µM (inactive)
CCOC(=O)Cc1nc2sc(S(N)(=O)=O)nn2c1Br |  | 36.6 µM (inactive) | 33.1 µM (inactive) | 32.3 µM (inactive) | 47.4 µM (inactive) | 19.4 µM (inactive) |  | 22.1 µM (inactive) | 16.1 µM (inactive) | 26.5 µM (inactive) | 26.6 µM (inactive) | 22.2 µM (inactive) | 23.5 µM (inactive) | 27.2 µM (inactive) | 22.8 µM (inactive) | 33 µM (inactive) | > 100 µM (inactive) | 24.7 µM (inactive) | 39.4 µM (inactive) | 25.5 µM (inactive)
Cc1ccc(NC(=O)c2cc3ccccc3c(/N=N\c3ccccc3O)c2O)c(C)c1 | 1.63 µM (inactive) | 0.37 µM (active) | 5.09 µM (inactive) | 1.45 µM (inactive) | 1.54 µM (inactive) | 3.13 µM (inactive) | 1.25 µM (inactive) | 3.1 µM (inactive) | 1.03 µM (active) |  | 2.75 µM (inactive) | 5.06 µM (inactive) |  | 1.88 µM (inactive) | 2.95 µM (inactive) | 2.25 µM (inactive) | 1.64 µM (inactive) | 2.16 µM (inactive) | 3.02 µM (inactive) | 1.14 µM (inactive)
NCCCCNCCCN1CCOC1=O |  | > 100 µM (inactive) | > 100 µM (inactive) | > 100 µM (inactive) | > 100 µM (inactive) | > 100 µM (inactive) | > 100 µM (inactive) | > 100 µM (inactive) | > 100 µM (inactive) | > 100 µM (inactive) | > 100 µM (inactive) | > 100 µM (inactive) | > 100 µM (inactive) | > 100 µM (inactive) |  | > 100 µM (inactive) | > 100 µM (inactive) | > 100 µM (inactive) | > 100 µM (inactive) | > 100 µM (inactive)
CC(C)c1ccc2c(c1)/C(=C1/Nc3ccccc3C1=O)C(=O)N2 | 1.7 µM (inactive) | 19 µM (inactive) | > 100 µM (inactive) | 0.0973 µM (active) | 17 µM (inactive) | 26.8 µM (inactive) | 22.1 µM (inactive) | 27.7 µM (inactive) | 27.2 µM (inactive) | 2.34 µM (inactive) | 5.7 µM (inactive) | 19.2 µM (inactive) | 20.9 µM (inactive) | 3.71 µM (inactive) | 4.58 µM (inactive) | 15.3 µM (inactive) | 7.64 µM (inactive) | 0.0188 µM (active) | > 100 µM (inactive) | 
CC(=O)O[C@H]1C(=O)[C@]2(C)[C@@H](OC(=O)OCC(O)CO)C[C@H]3OC[C@@]3(OC(C)=O)[C@H]2[C@H](OC(=O)c2ccccc2)[C@]2(O)C[C@H](OC(=O)[C@H](O)[C@@H](NC(=O)c3ccccc3)c3ccccc3)C(C)=C1C2(C)C (some centres not stated) [PACLITAXEL CERIBATE] | 17 µM (inactive) | < 0.01 µM (active) | 14.5 µM (inactive) | < 0.01 µM (active) | 1.1 µM (active) | < 0.01 µM (active) | < 0.01 µM (active) | < 0.01 µM (active) | < 0.01 µM (active) |  | 0.0387 µM (active) | < 0.01 µM (active) | < 0.01 µM (active) | 11.1 µM (inactive) | 22.4 µM (inactive) | < 0.01 µM (active) | < 0.01 µM (active) | < 0.01 µM (active) | < 0.01 µM (active) | < 0.01 µM (active)

Source: ChEMBL document CHEMBL1201862, “PubChem BioAssay data set” (2004)
